This note sets out measurements from patent US20240050428A1 (Cullgen (Shanghai), Inc., priority 2020, published 2024).

In assay [1] the test system is MV4;11 cells. As to the kind of experiment: Cell viability assay (CellTiter-Glo) in MV4;11 cells, alone or with gilteritinib. The format is cell-based. As to conditions: Homo sapiens, MV4-11, 72 h, MV4;11 cells, three days, CellTiter-Glo, read-out: MV4.
Assay [2] deals with MOLM-13 cells. As to the kind of experiment: Cell viability assay (CellTiter-Glo) in MOLM-13 cells, alone or with gilteritinib. The format is cell-based. The following applies: Homo sapiens, MOLM-13, 72 h, MOLM-13 cells, three days, CellTiter-Glo.
Where [3] appears, read: compound alone (without gilteritinib), 11 IC50.
Setting [4] is: with gilteritinib 10 nM, 11 IC50 gilteritinib.
The mark [5] stands for this setting: compound alone (without gilteritinib), read-out: MOLM-13 IC50.
Where [6] appears, read: with gilteritinib 20 nM, read-out: MOLM-13 IC50 gilteritinib.

Where two headings read alike, the source gives them in different places.

In the case of `O=C1CCC(N2C(=O)c3ccc(NCCCCCCn4cc(-c5cnc6cccc(C7CCNCC7)c6n5)cn4)cc3C2=O)C(=O)N1` (centres unmarked) [GS-393, 2-(2,6-Dioxopiperidin-3-yl)-5-((6-(4-(8-(piperidin-4-yl)quinoxalin-2-yl)-1H-pyrazol-1-yl)hexyl)amino)isoindoline-1,3-dione], the IC50 in assay [1] (setting [3]), in assay [1] (setting [4]), in assay [2] (setting [5]) and in assay [2] (setting [6]) was over 1000 nM throughout.

For `O=C1CCC(N2C(=O)c3ccc(NCC4CC(n5cc(-c6cnc7cccc(F)c7n6)cn5)C4)cc3C2=O)C(=O)N1` (centres unmarked) [GS-394, 2-(2,6-Dioxopiperidin-3-yl)-5-(((3-(4-(8-fluoroquinoxalin-2-yl)-1H-pyrazol-1-yl)cyclobutyl)methyl)amino)isoindoline-1,3-dione], the IC50 was 100 to 1000 nM in assay [1] (setting [3]), 10 to 100 nM in assay [1] (setting [4]), over 1000 nM in assay [2] (setting [5]) and 10 to 100 nM in assay [2] (setting [6]).

As to `CN1C[C@H]2C[C@@H]1CN2c1ccc2ncc(-c3cnn(C4CC(CCCNc5ccc6c(c5)C(=O)N(C5CCC(=O)NC5=O)C6=O)C4)c3)nc2c1` (stereo partly drawn) [GS-395, 2-(2,6-Dioxopiperidin-3-yl)-5-((3-(3-(4-(7-((1R,4R)-5-methyl-2,5-diazabicyclo[2.2.1]heptan-2-yl)quinoxalin-2-yl)-1H-pyrazol-1-yl)cyclobutyl)propyl)amino)isoindoline-1,3-dione], the IC50 in assay [1] (setting [3]) was over 1000 nM; in assay [1] (setting [4]) it was 10 to 100 nM; in assay [2] (setting [5]), over 1000 nM; in assay [2] (setting [6]) it was 10 to 100 nM.

As to `O=C1CCC(N2C(=O)c3ccc(NCCC[C@H]4C[C@H](n5cc(-c6cnc7cc(N8CCOCC8)ccc7n6)cn5)C4)cc3C2=O)C(=O)N1` (stereo partly drawn) [GS-396, 2-(2,6-Dioxopiperidin-3-yl)-5-((3-(trans-3-(4-(6-morpholinoquinoxalin-2-yl)-1H-pyrazol-1-yl)cyclobutyl)propyl)amino)isoindoline-1,3-dione], the IC50 in assay [1] (setting [3]) is 10 to 100 nM; in assay [1] (setting [4]), under 10 nM; in assay [2] (setting [5]), 10 to 100 nM; in assay [2] (setting [6]), under 10 nM.

Turning to `CN1CCN(c2ccc3nc(-c4cnn([C@H]5C[C@H](CCCNc6ccc7c(c6)C(=O)N(C6CCC(=O)NC6=O)C7=O)C5)c4)cnc3c2)CC1` (stereo partly drawn) [GS-397, 2-(2,6-Dioxopiperidin-3-yl)-5-((3-(trans-3-(4-(6-(4-methylpiperazin-1-yl)quinoxalin-2-yl)-1H-pyrazol-1-yl)cyclobutyl)propyl)amino)isoindoline-1,3-dione], the IC50 in assay [1] (setting [3]) was 10 to 100 nM; in assay [1] (setting [4]), under 10 nM; in assay [2] (setting [5]) it was 10 to 100 nM; in assay [2] (setting [6]), under 10 nM.

Take `CN1CCN(c2cccc3ncc(-c4cnn(C5CC(CNc6ccc7c(c6)C(=O)N(C6CCC(=O)NC6=O)C7=O)C5)c4)nc23)CC1` (centres unmarked) [GS-398, 2-(2,6-Dioxopiperidin-3-yl)-5-(((3-(4-(8-(4-methylpiperazin-1-yl)quinoxalin-2-yl)-1H-pyrazol-1-yl)cyclobutyl)methyl)amino)isoindoline-1,3-dione]: the IC50 in assay [1] (setting [3]), in assay [1] (setting [4]), in assay [2] (setting [5]) and in assay [2] (setting [6]) was over 1000 nM in each case.

For `Cc1nn([C@H]2C[C@H](CCCNc3ccc4c(c3)C(=O)N(C3CCC(=O)NC3=O)C4=O)C2)cc1-c1cnc2ccc(N3CCOCC3)cc2n1` (some centres unmarked) [GS-399], the IC50 in assay [1] (setting [3]), in assay [1] (setting [4]), in assay [2] (setting [5]) and in assay [2] (setting [6]) was under 10 nM each time.

In the case of `O=C1CCC(N2C(=O)c3ccc(NCCC[C@H]4C[C@H](n5cc(-c6cnc7ccccc7n6)c(C(F)(F)F)n5)C4)cc3C2=O)C(=O)N1` (stereo partly drawn) [GS-400, 2-(2,6-Dioxopiperidin-3-yl)-5-((3-(trans-3-(4-(quinoxalin-2-yl)-3-(trifluoromethyl)-1H-pyrazol-1-yl)cyclobutyl)propyl)amino)isoindoline-1,3-dione], the IC50 in assay [1] (setting [3]) fell in the range of 10 to 100 nM; in assay [1] (setting [4]), 10 to 100 nM; in assay [2] (setting [5]), 100 to 1000 nM; in assay [2] (setting [6]), 10 to 100 nM.

Take `O=C1CCC(N2C(=O)c3ccc(NCCC[C@H]4C[C@H](n5cc(-c6cnc7cc(N8CCNCC8)ccc7n6)cn5)C4)cc3C2=O)C(=O)N1` (stereo partly drawn) [GS-401, 2-(2,6-Dioxopiperidin-3-yl)-5-((3-(trans-3-(4-(6-(piperazin-1-yl)quinoxalin-2-yl)-1H-pyrazol-1-yl)cyclobutyl)propyl)amino)isoindoline-1,3-dione]: the IC50 in assay [1] (setting [3]) is 10 to 100 nM; in assay [1] (setting [4]) it was under 10 nM; in assay [2] (setting [5]) it was 10 to 100 nM; in assay [2] (setting [6]), under 10 nM.

Regarding `O=C1CCC(N2C(=O)c3ccc(NCCC[C@H]4C[C@@H](n5cc(-c6cnc7cc(N8CCOCC8)ccc7n6)cn5)C4)cc3C2=O)C(=O)N1` (stereo partly drawn) [GS-402, 2-(2,6-Dioxopiperidin-3-yl)-5-((3-(cis-3-(4-(6-morpholinoquinoxalin-2-yl)-1H-pyrazol-1-yl)cyclobutyl)propyl)amino)isoindoline-1,3-dione], the IC50 is 100 to 1000 nM in assay [1] (setting [3]), 10 to 100 nM in assay [1] (setting [4]), over 1000 nM in assay [2] (setting [5]) and 10 to 100 nM in assay [2] (setting [6]).

On to `O=C1CCC(N2C(=O)c3ccc(NCCC[C@H]4C[C@H](n5cc(-c6cnc7c(N8CCOCC8)cccc7n6)cn5)C4)cc3C2=O)C(=O)N1` (stereo partly drawn) [GS-403, 2-(2,6-Dioxopiperidin-3-yl)-5-((3-(trans-3-(4-(5-morpholinoquinoxalin-2-yl)-1H-pyrazol-1-yl)cyclobutyl)propyl)amino)isoindoline-1,3-dione], for which the IC50 in assay [1] (setting [3]) lay within 100 to 1000 nM; in assay [1] (setting [4]) it was 10 to 100 nM; in assay [2] (setting [5]), 100 to 1000 nM; in assay [2] (setting [6]) it was 10 to 100 nM.

As to `CN1CCN(c2cccc3nc(-c4cnn([C@H]5C[C@H](CCCNc6ccc7c(c6)C(=O)N(C6CCC(=O)NC6=O)C7=O)C5)c4)cnc23)CC1` (stereo partly drawn) [GS-404, 2-(2,6-Dioxopiperidin-3-yl)-5-((3-(trans-3-(4-(5-(4-methylpiperazin-1-yl)quinoxalin-2-yl)-1H-pyrazol-1-yl)cyclobutyl)propyl)amino)isoindoline-1,3-dione], the IC50 in assay [1] (setting [3]) is 10 to 100 nM; in assay [1] (setting [4]) it was under 10 nM; in assay [2] (setting [5]), 100 to 1000 nM; in assay [2] (setting [6]), under 10 nM.

Take `O=C1CCC(N2C(=O)c3ccc(NCCC[C@H]4C[C@H](n5cc(-c6cnc7c(N8CCNCC8)cccc7n6)cn5)C4)cc3C2=O)C(=O)N1` (stereo partly drawn) [GS-405, 2-(2,6-Dioxopiperidin-3-yl)-5-((3-(trans-3-(4-(5-(piperazin-1-yl)quinoxalin-2-yl)-1H-pyrazol-1-yl)cyclobutyl)propyl)amino)isoindoline-1,3-dione]: the IC50 in assay [1] (setting [3]) is 10 to 100 nM; in assay [1] (setting [4]), 10 to 100 nM; in assay [2] (setting [5]), 100 to 1000 nM; in assay [2] (setting [6]), under 10 nM.

As to `Cc1nn([C@H]2C[C@H](CCCNc3ccc4c(c3)C(=O)N(C3CCC(=O)NC3=O)C4=O)C2)cc1-c1cnc2ccc(N3C[C@H]4C[C@@H]3CN4C)cc2n1` (stereo partly drawn) [GS-407, 2-(2,6-dioxopiperidin-3-yl)-5-((3-(trans-3-(3-methyl-4-(7-((1R,4R)-5-methyl-2,5-diazabicyclo[2.2.1]heptan-2-yl)quinoxalin-2-yl)-1H-pyrazol-1-yl)cyclobutyl)propyl)amino)isoindoline-1,3-dione], the IC50 in assay [1] (setting [3]) is over 1000 nM; in assay [1] (setting [4]), 100 to 1000 nM; in assay [2] (setting [5]), over 1000 nM; in assay [2] (setting [6]), 10 to 100 nM.
